Like-named read-outs stand apart in the source and are kept apart here.
Experiments:
Assay in all cases: biochemical
Format in all cases: binding
[1] = biological target: panel of 468 diverse kinases (Homo sapiens, UniProt O75582); conditions: 1000 nM, read-out: Percent Control
[2] = biological target: panel of 468 diverse kinases (Homo sapiens, UniProt Q9UIK4); conditions: DAPK2; 1000 nM; read-out: Percent Control
[3] = biological target: panel of 468 diverse kinases (Homo sapiens, UniProt P00533, L858R/T790M); conditions: EGFR(L858R, T790M); 1000 nM; read-out: Percent Control
[4] = biological target: panel of 468 diverse kinases (Homo sapiens, UniProt P0C1S8); conditions: WEE2; 1000 nM; read-out: Percent Control
[5] = biological target: panel of 468 diverse kinases (Homo sapiens, UniProt Q05655); conditions: PRKCD; 1000 nM; read-out: Percent Control
[6] = biological target: panel of 468 diverse kinases (Homo sapiens, UniProt P49137); conditions: MAPKAPK2; 1000 nM; read-out: Percent Control
[7] = biological target: panel of 468 diverse kinases (Homo sapiens, UniProt Q59H18); conditions: TNNI3K; 1000 nM; read-out: Percent Control
[8] = biological target: panel of 468 diverse kinases (Homo sapiens, UniProt P21709); conditions: EPHA1; 1000 nM; read-out: Percent Control
[9] = biological target: panel of 468 diverse kinases (Homo sapiens, UniProt Q2M2I8); conditions: AAK1; 1000 nM; read-out: Percent Control
[10] = biological target: panel of 468 diverse kinases (Homo sapiens, UniProt P07332); conditions: FES; 1000 nM; read-out: Percent Control
[11] = biological target: panel of 468 diverse kinases (Homo sapiens, UniProt Q9NYY3); conditions: PLK2; 1000 nM; read-out: Percent Control
[12] = biological target: panel of 468 diverse kinases (Homo sapiens, UniProt P23458); conditions: 1000 nM, read-out: Percent Control
[13] = biological target: panel of 468 diverse kinases (Homo sapiens, UniProt Q9BYT3); conditions: STK33; 1000 nM; read-out: Percent Control
[14] = biological target: panel of 468 diverse kinases (Homo sapiens, UniProt P45984); conditions: JNK2; 1000 nM; read-out: Percent Control
[15] = biological target: panel of 468 diverse kinases (Homo sapiens, UniProt P42336, H1047L); conditions: PIK3CA(H1047L); 1000 nM; read-out: Percent Control
[16] = biological target: panel of 468 diverse kinases (Homo sapiens, UniProt P78362); conditions: SRPK2; 1000 nM; read-out: Percent Control
[17] = biological target: panel of 468 diverse kinases (Homo sapiens, UniProt Q8N752); conditions: CSNKIV1L; 1000 nM; read-out: Percent Control
[18] = biological target: panel of 468 diverse kinases (Homo sapiens, UniProt P29323); conditions: EPHB2; 1000 nM; read-out: Percent Control
[19] = biological target: panel of 468 diverse kinases (Homo sapiens, UniProt P21860); conditions: ERBB3; 1000 nM; read-out: Percent Control
[20] = biological target: panel of 468 diverse kinases (Homo sapiens, UniProt P42679); conditions: CTK; 1000 nM; read-out: Percent Control
[21] = biological target: panel of 468 diverse kinases (Homo sapiens, UniProt Q9UM73, C1156Y); conditions: ALK(C1156Y); 1000 nM; read-out: Percent Control
[22] = biological target: panel of 468 diverse kinases (Homo sapiens, UniProt Q9Y6M4); conditions: CSNK1G3; 1000 nM; read-out: Percent Control
[23] = biological target: panel of 468 diverse kinases (Homo sapiens, UniProt P54646); conditions: AMPK-alpha2; 1000 nM; read-out: Percent Control
[24] = biological target: panel of 468 diverse kinases (Homo sapiens, UniProt P51812); conditions: 1000 nM, read-out: Percent Control
[25] = biological target: panel of 468 diverse kinases (Homo sapiens, UniProt P51451); conditions: BLK; 1000 nM; read-out: Percent Control
[26] = biological target: panel of 468 diverse kinases (Homo sapiens, UniProt P29317); conditions: EPHA2; 1000 nM; read-out: Percent Control
[27] = biological target: panel of 468 diverse kinases (Homo sapiens, UniProt P42336, E545A); conditions: PIK3CA(E545A); 1000 nM; read-out: Percent Control
[28] = biological target: panel of 468 diverse kinases (Homo sapiens, UniProt O75116); conditions: ROCK2; 1000 nM; read-out: Percent Control
[29] = biological target: panel of 468 diverse kinases (Homo sapiens, UniProt Q13164); conditions: ERK5; 1000 nM; read-out: Percent Control
[30] = biological target: panel of 468 diverse kinases (Homo sapiens, UniProt Q9UQB9); conditions: AURKC; 1000 nM; read-out: Percent Control

Sequence of panel of 468 diverse kinases (Homo sapiens, UniProt P29317) (P29317 24-976 limits assumed): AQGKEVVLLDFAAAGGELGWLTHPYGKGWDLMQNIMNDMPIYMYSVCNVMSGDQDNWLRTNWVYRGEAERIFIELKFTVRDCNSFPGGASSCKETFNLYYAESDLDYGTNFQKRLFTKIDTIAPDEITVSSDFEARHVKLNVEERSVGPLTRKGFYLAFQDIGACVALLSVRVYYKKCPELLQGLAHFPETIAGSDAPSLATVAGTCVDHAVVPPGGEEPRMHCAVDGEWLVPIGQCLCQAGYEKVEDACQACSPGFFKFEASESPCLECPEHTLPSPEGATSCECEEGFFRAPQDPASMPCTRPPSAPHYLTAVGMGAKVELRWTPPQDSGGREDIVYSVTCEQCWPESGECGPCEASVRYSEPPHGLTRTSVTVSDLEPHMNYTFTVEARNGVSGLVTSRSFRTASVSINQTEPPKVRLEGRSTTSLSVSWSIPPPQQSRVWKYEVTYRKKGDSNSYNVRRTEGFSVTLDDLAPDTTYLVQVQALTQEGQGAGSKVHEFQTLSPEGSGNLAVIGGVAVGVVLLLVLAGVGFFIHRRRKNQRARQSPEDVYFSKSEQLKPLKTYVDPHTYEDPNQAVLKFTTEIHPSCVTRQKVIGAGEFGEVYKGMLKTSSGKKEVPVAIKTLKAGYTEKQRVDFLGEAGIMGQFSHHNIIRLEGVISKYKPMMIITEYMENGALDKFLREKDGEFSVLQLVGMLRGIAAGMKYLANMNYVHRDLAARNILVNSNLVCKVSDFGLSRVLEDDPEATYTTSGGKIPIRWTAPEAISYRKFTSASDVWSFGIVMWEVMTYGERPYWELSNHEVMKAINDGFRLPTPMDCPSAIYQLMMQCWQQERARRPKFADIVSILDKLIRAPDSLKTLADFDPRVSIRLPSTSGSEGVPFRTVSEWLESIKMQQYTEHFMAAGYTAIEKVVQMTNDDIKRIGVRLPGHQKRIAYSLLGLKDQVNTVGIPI
Sequence of panel of 468 diverse kinases (Homo sapiens, UniProt P51451) (P51451 2-505 limits assumed): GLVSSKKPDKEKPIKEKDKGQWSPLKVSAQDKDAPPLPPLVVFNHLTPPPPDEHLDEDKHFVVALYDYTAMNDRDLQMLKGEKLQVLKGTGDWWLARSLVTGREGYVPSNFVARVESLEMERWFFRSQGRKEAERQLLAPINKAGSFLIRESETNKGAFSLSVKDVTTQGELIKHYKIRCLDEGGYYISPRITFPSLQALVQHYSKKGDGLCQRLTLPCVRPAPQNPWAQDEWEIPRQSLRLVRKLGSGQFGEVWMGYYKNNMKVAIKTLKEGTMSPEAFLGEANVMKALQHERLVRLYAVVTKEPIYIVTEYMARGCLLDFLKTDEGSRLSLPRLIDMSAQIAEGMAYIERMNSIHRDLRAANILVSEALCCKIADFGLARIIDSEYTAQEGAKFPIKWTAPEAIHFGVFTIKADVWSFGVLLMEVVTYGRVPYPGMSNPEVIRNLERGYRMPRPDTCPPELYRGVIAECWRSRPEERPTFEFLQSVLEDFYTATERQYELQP
Sequence of panel of 468 diverse kinases (Homo sapiens, UniProt P21709) (P21709 26-976 limits assumed): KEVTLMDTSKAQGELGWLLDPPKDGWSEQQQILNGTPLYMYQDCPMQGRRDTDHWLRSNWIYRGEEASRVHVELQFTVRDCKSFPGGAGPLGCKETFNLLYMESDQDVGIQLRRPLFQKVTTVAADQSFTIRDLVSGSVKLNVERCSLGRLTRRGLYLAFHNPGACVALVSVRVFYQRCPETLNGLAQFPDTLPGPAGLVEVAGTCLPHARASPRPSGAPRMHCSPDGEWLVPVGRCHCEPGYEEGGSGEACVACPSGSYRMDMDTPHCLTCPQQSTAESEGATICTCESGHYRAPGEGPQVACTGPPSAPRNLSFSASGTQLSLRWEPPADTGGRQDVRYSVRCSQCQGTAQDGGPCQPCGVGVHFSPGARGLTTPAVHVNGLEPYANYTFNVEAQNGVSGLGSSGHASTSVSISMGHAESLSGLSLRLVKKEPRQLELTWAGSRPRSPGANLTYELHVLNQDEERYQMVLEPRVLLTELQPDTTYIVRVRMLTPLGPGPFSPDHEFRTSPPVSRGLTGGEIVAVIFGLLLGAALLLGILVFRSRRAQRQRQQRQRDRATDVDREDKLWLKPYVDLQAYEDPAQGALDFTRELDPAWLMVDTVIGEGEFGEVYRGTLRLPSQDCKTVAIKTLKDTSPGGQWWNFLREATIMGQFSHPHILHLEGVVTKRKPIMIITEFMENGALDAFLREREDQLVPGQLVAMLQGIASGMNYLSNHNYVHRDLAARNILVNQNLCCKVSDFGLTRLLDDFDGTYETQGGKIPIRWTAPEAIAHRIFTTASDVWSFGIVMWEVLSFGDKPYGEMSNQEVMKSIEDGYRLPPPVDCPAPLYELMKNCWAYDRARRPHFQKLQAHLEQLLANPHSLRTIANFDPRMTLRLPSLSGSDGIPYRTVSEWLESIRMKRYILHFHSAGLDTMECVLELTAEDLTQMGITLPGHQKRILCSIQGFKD
Sequence of panel of 468 diverse kinases (Homo sapiens, UniProt Q9UM73, C1156Y) (Q9UM73 19-1620 C1156Y limits assumed): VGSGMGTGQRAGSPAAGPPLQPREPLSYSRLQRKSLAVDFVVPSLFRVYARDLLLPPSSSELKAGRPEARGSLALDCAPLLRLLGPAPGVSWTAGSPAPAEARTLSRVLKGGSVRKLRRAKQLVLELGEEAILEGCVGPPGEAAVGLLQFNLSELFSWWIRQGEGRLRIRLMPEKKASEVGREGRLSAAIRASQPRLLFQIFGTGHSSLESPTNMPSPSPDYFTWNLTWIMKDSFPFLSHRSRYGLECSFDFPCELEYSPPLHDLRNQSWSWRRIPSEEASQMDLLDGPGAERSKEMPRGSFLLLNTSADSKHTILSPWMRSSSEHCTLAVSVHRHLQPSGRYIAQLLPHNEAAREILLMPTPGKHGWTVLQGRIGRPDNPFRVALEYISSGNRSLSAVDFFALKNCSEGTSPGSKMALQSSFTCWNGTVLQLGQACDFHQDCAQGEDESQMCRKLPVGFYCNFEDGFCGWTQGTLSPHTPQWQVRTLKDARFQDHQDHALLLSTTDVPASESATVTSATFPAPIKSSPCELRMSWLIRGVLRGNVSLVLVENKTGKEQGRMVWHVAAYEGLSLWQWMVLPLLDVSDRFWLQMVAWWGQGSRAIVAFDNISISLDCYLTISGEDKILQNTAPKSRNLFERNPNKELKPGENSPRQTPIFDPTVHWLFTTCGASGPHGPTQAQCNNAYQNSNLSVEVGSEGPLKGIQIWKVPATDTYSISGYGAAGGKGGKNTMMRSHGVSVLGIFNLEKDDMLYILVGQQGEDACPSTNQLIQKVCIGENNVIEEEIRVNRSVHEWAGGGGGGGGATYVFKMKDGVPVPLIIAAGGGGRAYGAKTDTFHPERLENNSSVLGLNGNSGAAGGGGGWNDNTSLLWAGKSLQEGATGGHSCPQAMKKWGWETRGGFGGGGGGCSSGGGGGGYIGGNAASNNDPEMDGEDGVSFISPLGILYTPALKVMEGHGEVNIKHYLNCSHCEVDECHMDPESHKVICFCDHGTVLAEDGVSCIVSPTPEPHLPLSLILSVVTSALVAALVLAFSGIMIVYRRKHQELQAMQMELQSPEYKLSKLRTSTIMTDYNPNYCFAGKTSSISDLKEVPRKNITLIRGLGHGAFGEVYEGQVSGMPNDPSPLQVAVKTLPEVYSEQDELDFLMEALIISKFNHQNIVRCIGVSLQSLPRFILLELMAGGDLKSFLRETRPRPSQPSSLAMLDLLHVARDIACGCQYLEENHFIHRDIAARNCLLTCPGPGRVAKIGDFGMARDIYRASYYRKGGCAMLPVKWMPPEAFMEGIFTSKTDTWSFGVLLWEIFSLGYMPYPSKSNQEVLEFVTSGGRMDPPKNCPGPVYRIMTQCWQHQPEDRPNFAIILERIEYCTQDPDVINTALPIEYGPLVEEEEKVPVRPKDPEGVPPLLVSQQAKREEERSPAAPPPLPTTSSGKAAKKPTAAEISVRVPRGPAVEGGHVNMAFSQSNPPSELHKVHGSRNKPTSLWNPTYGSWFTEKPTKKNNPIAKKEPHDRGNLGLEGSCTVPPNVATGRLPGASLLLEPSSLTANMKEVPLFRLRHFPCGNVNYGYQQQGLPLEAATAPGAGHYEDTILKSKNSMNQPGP
Sequence of panel of 468 diverse kinases (Homo sapiens, UniProt Q13164) (Q13164 2-816 limits assumed): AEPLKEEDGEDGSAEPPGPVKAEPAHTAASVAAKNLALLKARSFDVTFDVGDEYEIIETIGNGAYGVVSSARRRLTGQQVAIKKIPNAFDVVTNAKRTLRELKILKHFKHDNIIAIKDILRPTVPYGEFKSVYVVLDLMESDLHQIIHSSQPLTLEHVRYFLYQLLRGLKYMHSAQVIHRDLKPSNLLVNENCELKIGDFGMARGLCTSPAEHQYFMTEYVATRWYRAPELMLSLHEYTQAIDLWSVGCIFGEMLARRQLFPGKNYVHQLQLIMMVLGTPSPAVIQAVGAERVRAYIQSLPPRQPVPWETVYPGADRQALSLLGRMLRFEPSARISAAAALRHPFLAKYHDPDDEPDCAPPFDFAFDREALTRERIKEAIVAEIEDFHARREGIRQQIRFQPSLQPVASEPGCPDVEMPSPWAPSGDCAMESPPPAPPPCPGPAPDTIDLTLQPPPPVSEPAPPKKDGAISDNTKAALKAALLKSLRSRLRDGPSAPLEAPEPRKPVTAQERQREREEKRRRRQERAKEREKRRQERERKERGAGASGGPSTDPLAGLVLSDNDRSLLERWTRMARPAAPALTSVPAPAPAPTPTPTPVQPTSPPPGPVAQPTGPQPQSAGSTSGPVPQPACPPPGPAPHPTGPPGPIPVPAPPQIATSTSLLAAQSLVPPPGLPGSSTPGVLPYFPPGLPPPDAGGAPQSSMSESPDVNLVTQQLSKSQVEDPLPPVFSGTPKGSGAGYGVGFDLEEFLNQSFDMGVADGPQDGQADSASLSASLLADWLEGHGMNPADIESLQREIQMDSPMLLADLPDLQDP

Structure (SMILES): COc1cc2nc(NC3CC3)nc(NC3CCN(C(C)C)CC3)c2cc1OC [Formula IV]
- remaining activity at 1 µM ([1]; RPS6KA5(Kin.Dom.1-N-terminal)): 75%
- remaining activity at 1 µM ([1]; RPS6KA5(Kin.Dom.2-C-terminal)): 100%
- remaining activity at 1 µM [2]: 93%
- remaining activity at 1 µM [3]: 35%
- remaining activity at 1 µM [4]: 96%
- remaining activity at 1 µM [5]: 97%
- remaining activity at 1 µM [6]: 100%
- remaining activity at 1 µM [7]: 96%
- remaining activity at 1 µM [8]: 100%
- remaining activity at 1 µM [9]: 91%
- remaining activity at 1 µM [10]: 100%
- remaining activity at 1 µM [11]: 55%
- remaining activity at 1 µM ([12]; JAK1(JH1domain-catalytic)): 96%
- remaining activity at 1 µM ([12]; JAK1(JH2domain-pseudokinase)): 51%
- remaining activity at 1 µM [13]: 92%
- remaining activity at 1 µM [14]: 45%
- remaining activity at 1 µM [15]: 90%
- remaining activity at 1 µM [16]: 80%
- remaining activity at 1 µM [17]: 99%
- remaining activity at 1 µM [18]: 70%
- remaining activity at 1 µM [19]: 100%
- remaining activity at 1 µM [20]: 32%
- remaining activity at 1 µM [21]: 92%
- remaining activity at 1 µM [22]: 100%
- remaining activity at 1 µM [23]: 93%
- remaining activity at 1 µM ([24]; RSK2(Kin.Dom.1-N-terminal)): 67%
- remaining activity at 1 µM ([24]; RSK2(Kin.Dom.2-C-terminal)): 53%
- remaining activity at 1 µM [25]: 100%
- remaining activity at 1 µM [26]: 100%
- remaining activity at 1 µM [27]: 89%
- remaining activity at 1 µM [28]: 49%
- remaining activity at 1 µM [29]: 86%
- remaining activity at 1 µM [30]: 100%
